# Measurements as given in PMC3183289 (Bioorganic & medicinal chemistry, 2011).
# Where two headings read alike, the source gives them in different places.
# What was measured:
# recombinant mPGES-1 = biological target: T1, recombinant mPGES-1 (Homo sapiens, UniProt O14684); experiment: in vitro mPGES-1 enzyme activity assay; assay type: biochemical; settings: −RTln(Kd) ≈ −RTln(IC50), from measured IC50
# T1 sequence (O14684 1-152): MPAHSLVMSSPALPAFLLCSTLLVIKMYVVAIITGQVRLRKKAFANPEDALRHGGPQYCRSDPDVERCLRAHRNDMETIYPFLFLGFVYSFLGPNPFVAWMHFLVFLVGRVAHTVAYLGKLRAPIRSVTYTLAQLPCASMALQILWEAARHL
# mPGES-1 = settings: cited from earlier work
compound,measurement,setting,value
COCCN(c1ccc(/C=C2\S/C(=N\c3ccccc3)N(C(C)C(=O)O)C2=O)cc1)c1ccccc1OC (stereo not drawn) [Compound 3],ΔGbind^Exp,recombinant mPGES-1,-7.44 kcal/mol
CCCCC/C=C\C\C=C/C=C/C=C/[C@@H](SC[C@H](NC(=O)CC[C@H](N)C(=O)O)C(=O)NCC(=O)O)[C@@H](O)CCCC(=O)O [Leukotriene C4],IC50,mPGES-1; probably by competing with glutathione,micromolar
CSc1ccc(/C=C2/C(C)=C(CC(=O)O)c3cc(F)ccc32)cc1,IC50,mPGES-1,80 µM
